Results taken from ChEMBL document CHEMBL1130726, “Novel cytokine release inhibitors. Part III: Truncated analogs of tripterine” (Bioorg Med Chem Lett, 1998).
Each block holds one compound with its values, some of them ahead of it.

What was measured:
Type in all cases: functional
Homo sapiens [1] = species: Homo sapiens; assay: Inhibitory activity against LPS-stimulated IL-1 beta release from human monocytes
Homo sapiens [2] = species: Homo sapiens; assay: Compound was tested for inhibitory effect on LPS-stimulated IL-1 alpha release from human monocytes
Homo sapiens [3] = species: Homo sapiens; assay: Compound was tested for inhibitory effect on LPS-stimulated IL-6 release from human monocytes
Homo sapiens [4] = species: Homo sapiens; assay: Compound was tested for inhibitory effect on LPS-stimulated PGE-2 release from human monocytes
Homo sapiens [5] = species: Homo sapiens; assay: Compound was tested for inhibitory effect on LPS-stimulated IL-8 release from human monocytes
Homo sapiens [6] = species: Homo sapiens; assay: Compound was tested for inhibitory effect on LPS-stimulated TNF-alpha release from human monocytes
Homo sapiens [7] = species: Homo sapiens; assay: Compound was tested for inhibitory activity against LPS-stimulated IL-1 beta release from human monocytes; 80-700
Homo sapiens [8] = species: Homo sapiens; assay: Compound was tested for inhibitory effect on LPS-stimulated IL-1 beta release from human monocytes
Homo sapiens [9] = species: Homo sapiens; assay: Compound was tested for inhibitory activity against LPS-stimulated IL-1 beta release from human monocytes at concentration 3000 nM

Compound: Cc1c(O)c(O)cc2c1CC=C1C(C)(C)C(=O)CCC12C (stereo not drawn)
IC50 (Homo sapiens [1]): 300 nM

Compound: CC(=O)Oc1cc2c(c(C)c1OC(C)=O)CC=C1[C@@]3(C)CCC(=O)C(C)=C3CC[C@]12C
IC50 (Homo sapiens [1]): 80 nM

Compound: COc1cc2c(c(C)c1OC)C=CC1=C(C)C(=O)CCC12C (stereo not drawn)
IC50 (Homo sapiens [2]): 130 nM
IC50 (Homo sapiens [3]): 340 nM
IC50 (Homo sapiens [4]): 450 nM
IC50 (Homo sapiens [5]): 480 nM
IC50 (Homo sapiens [6]): 190 nM

Compound: CC(=O)Oc1cc2c(cc1OC(C)=O)[C@]1(C)CC[C@H]3C(C)(C)C(=O)CC[C@]3(C)C1=CC2
IC50 (Homo sapiens [1]): 140 nM

Compound: COc1cc2c(c(C)c1OC)CCC(=O)C2C (stereo not drawn)
IC50 (Homo sapiens [2]): 240 nM
IC50 (Homo sapiens [3]): 430 nM
IC50 (Homo sapiens [4]): 520 nM
IC50 (Homo sapiens [5]): 1000 nM
IC50 (Homo sapiens [6]): 460 nM

Compound: CC1=C(O)C(=O)C=C2C1=CC=C1C(C)(C)C(=O)CCC21C (stereo not drawn)
IC50 (Homo sapiens [7]): 80 nM

Compound: CC(=O)Oc1cc2c(c(C)c1OC(C)=O)CC=C1C(C)(C)C(=O)CC[C@]12C
IC50 (Homo sapiens [1]): 200 nM

Compound: CC(=O)Oc1cc2c(c(C)c1OC(C)=O)C=CC1=C(C)C(=O)CCC12C (stereo not drawn)
IC50 (Homo sapiens [8]): 180 nM
IC50 (Homo sapiens [2]): 220 nM
IC50 (Homo sapiens [3]): 400 nM
IC50 (Homo sapiens [4]): 600 nM
IC50 (Homo sapiens [1]): 700 nM
IC50 (Homo sapiens [5]): 930 nM
IC50 (Homo sapiens [6]): 500 nM

Compound: CCOC(=O)C[C@@]1(C)C(=O)CC[C@@]2(C)c3cc(OC(C)=O)c(OC(C)=O)cc3CC[C@H]12
IC50 (Homo sapiens [1]): 2200 nM

Compound: CC(=O)Oc1cc2c(cc1OC(C)=O)[C@]1(C)CCC(=O)[C@](C)(Cc3ccc(C(=O)O)cc3)[C@H]1CC2
inhibition at 3 µM (Homo sapiens [9]): 16%

Compound: CC(=O)Oc1cc2c(c(C)c1OC(C)=O)CC=C1C(C)(C)C(=O)CCC12C (stereo not drawn)
IC50 (Homo sapiens [1]): 200 nM

Compound: CC1=C(O)C(=O)C=C2C1=CC=C1[C@@]2(C)CC[C@@]2(C)[C@@H]3C[C@](C)(C(=O)O)CC[C@]3(C)CC[C@]12C [CELASTROL]
IC50 (Homo sapiens [8]): 40 nM
IC50 (Homo sapiens [2]): 40 nM
IC50 (Homo sapiens [3]): 80 nM
IC50 (Homo sapiens [4]): 110 nM
IC50 (Homo sapiens [1]): 40 nM
IC50 (Homo sapiens [5]): 210 nM
IC50 (Homo sapiens [6]): 210 nM

The next lines start with the values.

IC50 (Homo sapiens [1]): 700 nM
Compound: COc1cc2c(c(C)c1O)CC=C1C(C)(C)C(=O)CCC12C (stereo not drawn)

IC50 (Homo sapiens [1]): 900 nM
Compound: CC(=O)Oc1cc2c(c(C)c1OC(C)=O)CC(C(C)=O)=C1[C@@]2(C)CC[C@H]2OC(=O)C[C@]12C

IC50 (Homo sapiens [8]): 80 nM
IC50 (Homo sapiens [2]): 100 nM
IC50 (Homo sapiens [3]): 250 nM
IC50 (Homo sapiens [4]): 200 nM
IC50 (Homo sapiens [1]): 2400 nM
IC50 (Homo sapiens [5]): 300 nM
IC50 (Homo sapiens [6]): 190 nM
Compound: CC(=O)Oc1cc2c(c(C)c1OC(C)=O)CCC1=C(C)C(=O)CCC12C (stereo not drawn)

IC50 (Homo sapiens [1]): 200 nM
Compound: CC(=O)Oc1cc2c(c(C)c1OC(C)=O)CC=C1[C@@]2(C)CC[C@H]2OC(=O)C[C@]12C

IC50 (Homo sapiens [1]): 100 nM
Compound: CC(=O)Oc1cc2c(c(C)c1OC(C)=O)CC=C1C(C)(C)[C@H](OC(C)=O)CC[C@]12C
